target: Beta-3 Adrenergic Receptor (Homo sapiens (Human), UniProt P13945); experiment: Homogeneous Time-Resolved Fluorescence (HTRF) cAMP antagonist assay, IC50 determination; type: cell-based; conditions: CHO-K1 cells stably expressing recombinant receptor, isoproterenol at EC90
Method in brief: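 Antagonist mode: isoproterenol at its predetermined EC90 added after compound to recombinant CHO-K1 cells in IBMX-containing PBS, 1 h, room temperature. Compounds tested as 5-fold, 10-point dilutions, top final typically 10 or 100 μM. HTRF signal converted to cAMP via standard curve, giving IC50.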

Chain of Beta-3 Adrenergic Receptor (P13945 whole entry, species assumed): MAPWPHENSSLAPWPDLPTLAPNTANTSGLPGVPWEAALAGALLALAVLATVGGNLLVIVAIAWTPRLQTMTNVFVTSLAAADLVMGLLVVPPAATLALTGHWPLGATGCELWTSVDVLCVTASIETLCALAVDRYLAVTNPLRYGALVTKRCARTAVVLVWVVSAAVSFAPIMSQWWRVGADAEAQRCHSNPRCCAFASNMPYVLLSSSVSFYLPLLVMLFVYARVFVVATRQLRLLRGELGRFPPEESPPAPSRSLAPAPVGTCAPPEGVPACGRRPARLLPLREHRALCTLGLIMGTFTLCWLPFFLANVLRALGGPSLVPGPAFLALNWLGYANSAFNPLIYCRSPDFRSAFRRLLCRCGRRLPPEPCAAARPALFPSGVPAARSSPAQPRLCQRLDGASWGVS

Row | SMILES | IC50
1 | CNS(=O)(=O)c1cccc(OC[C@@H](O)CN[C@@H]2COC3(CCN(S(=O)(=O)c4cccc(-c5ccc(N)nc5)c4)CC3)C2)c1 [Compound 286, 3-((S)-3-((S)-8-(3-(6-aminopyridin-3-yl)phenylsulfonyl)-1-oxa-8-azaspiro[4.5]decan-3-ylamino)-2-hydroxypropoxy)-N-methylbenzenesulfonamide] | 20.5 nM
2 | CNS(=O)(=O)c1cccc(OC[C@@H](O)CNC2COC3(CCN(S(=O)(=O)c4cc(C)ccc4C#N)CC3)C2)c1 (stereo partly drawn) [Compound 180, 3-((2S)-3-(8-(2-cyano-5-methylphenylsulfonyl)-1-oxa-8-azaspiro[4.5]decan-3-ylamino)-2-hydroxypropoxy)-N-methylbenzenesulfonamide] | 29.8 nM
3 | CN(C)S(=O)(=O)c1cccc(OC[C@@H](O)CNC2COC3(CCN(S(=O)(=O)c4ccc5ccccc5c4)CC3)C2)c1 (stereo partly drawn) [Compound 4, 3-((2S)-2-hydroxy-3-(8-(naphthalen-2-ylsulfonyl)-1-oxa-8-azaspiro[4.5]decan-3-ylamino)propoxy)-N,N-dimethylbenzenesulfonamide] | 11.2 nM
4 | CNS(=O)(=O)c1cccc(OC[C@@H](O)CN[C@H]2COC3(CCN(S(=O)(=O)c4ccc(OC)c(C)c4)CC3)C2)c1 [Compound 267, 3-((S)-2-hydroxy-3-((R)-8-(4-methoxy-3-methylphenylsulfonyl)-1-oxa-8-azaspiro[4.5]decan-3-ylamino)propoxy)-N-methylbenzenesulfonamide] | 9.43 nM
5 | CNS(=O)(=O)c1cccc(OC[C@@H](O)CNC2COC3(CCN(S(=O)(=O)c4ccc5c(ccn5C)c4)CC3)C2)c1 (stereo partly drawn) [Compound 221, 3-((2S)-2-hydroxy-3-(8-(1-methyl-1H-indol-5-ylsulfonyl)-1-oxa-8-azaspiro[4.5]decan-3-ylamino)propoxy)-N-methylbenzenesulfonamide] | 9.58 nM
6 | CCn1cc(-c2cccc(S(=O)(=O)N3CCC4(CC3)C[C@@H](NC[C@H](O)COc3cccc(S(=O)(=O)NC)c3)CO4)c2)cn1 [Compound 283, 3-((S)-3-((R)-8-(3-(1-ethyl-1H-pyrazol-4-yl)phenylsulfonyl)-1-oxa-8-azaspiro[4.5]decan-3-ylamino)-2-hydroxypropoxy)-N-methylbenzenesulfonamide] | 84.6 nM
7 | CNS(=O)(=O)c1cccc(OC[C@@H](O)CNC2COC3(CCN(S(=O)(=O)c4cccc(-c5ccc(CC#N)cc5)c4)CC3)C2)c1 (stereo partly drawn) [Compound 117, 3-((2S)-3-(8-(4′-(cyanomethyl)biphenyl-3-ylsulfonyl)-1-oxa-8-azaspiro[4.5]decan-3-ylamino)-2-hydroxypropoxy)-N-methylbenzenesulfonamide] | 14.5 nM
8 | CCn1cc(-c2cccc(S(=O)(=O)N3CCC4(CC3)CC(NC[C@H](O)COc3cccc(S(=O)(=O)NC)c3)CO4)c2)cn1 (stereo partly drawn) [Compound 69, 3-((2S)-3-(8-(3-(1-ethyl-1H-pyrazol-4-yl)phenylsulfonyl)-1-oxa-8-azaspiro[4.5]decan-3-ylamino)-2-hydroxypropoxy)-N-methylbenzenesulfonamide] | 21.1 nM
9 | O=S(=O)(NCCCO)c1cccc(OC[C@@H](O)CNC2COC3(CCN(S(=O)(=O)c4ccc5ccccc5c4)CC3)C2)c1 (stereo partly drawn) [Compound 51, 3-((2S)-2-hydroxy-3-(8-(naphthalen-2-ylsulfonyl)-1-oxa-8-azaspiro[4.5]decan-3-ylamino)propoxy)-N-(3-hydroxypropyl)benzenesulfonamide] | 58.5 nM
10 | CNS(=O)(=O)c1cccc(OC[C@@H](O)CN[C@H]2COC3(CCN(S(=O)(=O)c4cccc(-c5ccc(N)nc5)c4)CC3)C2)c1 [Compound 287, 3-((S)-3-((R)-8-(3-(6-aminopyridin-3-yl)phenylsulfonyl)-1-oxa-8-azaspiro[4.5]decan-3-ylamino)-2-hydroxypropoxy)-N-methylbenzenesulfonamide] | 21.9 nM
11 | CNS(=O)(=O)c1cccc(OC[C@@H](O)CNC2COC3(CCN(S(=O)(=O)c4cn(C)nc4C(F)(F)F)CC3)C2)c1 (stereo partly drawn) [Compound 152, 3-((2S)-2-hydroxy-3-(8-(1-methyl-3-(trifluoromethyl)-1H-pyrazol-4-ylsulfonyl)-1-oxa-8-azaspiro[4.5]decan-3-ylamino)propoxy)-N-methylbenzenesulfonamide] | 90.7 nM
12 | CNS(=O)(=O)c1cccc(OC[C@@H](O)CN[C@@H]2COC3(CCN(S(=O)(=O)c4ccc5c(c4)CCCO5)CC3)C2)c1 [Compound 183, 3—((S)-3-((S)-8-(chroman-6-ylsulfonyl)-1-oxa-8-azaspiro[4.5]decan-3-ylamino)-2-hydroxypropoxy)-N-methylbenzenesulfonamide] | 16.4 nM
13 | CNS(=O)(=O)c1cccc(OC[C@@H](O)CNC2COC3(CCN(S(=O)(=O)c4ccc(OC)c5c4CCCC5)CC3)C2)c1 (stereo partly drawn) [Compound 222, 3-((2S)-2-hydroxy-3-(8-(4-methoxy-5,6,7,8-tetrahydronaphthalen-1-ylsulfonyl)-1-oxa-8-azaspiro[4.5]decan-3-ylamino)propoxy)-N-methylbenzenesulfonamide] | 109 nM

Next, values leading:

Row | IC50 | SMILES
14 | 17.9 nM | CNS(=O)(=O)c1cccc(OC[C@@H](O)CNC2COC3(CCN(S(=O)(=O)c4ccc5c(c4)OCCO5)CC3)C2)c1 (stereo partly drawn) [Compound 332, 3-((2S)-3-(8-(2,3-dihydrobenzo[b][1,4]dioxin-6-ylsulfonyl)-1-oxa-8-azaspiro[4.5]decan-3-ylamino)-2-hydroxypropoxy)-N-methylbenzenesulfonamide]
15 | 41.5 nM | CNS(=O)(=O)c1cccc(OC[C@@H](O)CN[C@H]2COC3(CCN(S(=O)(=O)c4cnc5nc(C)[nH]c5c4)CC3)C2)c1 [Compound 486, 3-((S)-2-hydroxy-3-((R)-8-(2-methyl-1H-imidazo[4,5-b]pyridin-6-ylsulfonyl)-1-oxa-8-azaspiro[4.5]decan-3-ylamino)propoxy)-N-methylbenzenesulfonamide]
16 | 98.3 nM | O=S(=O)(NCCO)c1cccc(OC[C@@H](O)CN[C@H]2COC3(CCN(S(=O)(=O)c4cnc5cc[nH]c5c4)CC3)C2)c1 [Compound 521, 3-((S)-3-((R)-8-(1H-pyrrolo[3,2-b]pyridin-6-ylsulfonyl)-1-oxa-8-azaspiro[4.5]decan-3-ylamino)-2-hydroxypropoxy)-N-(2-hydroxyethyl)benzenesulfonamide]
17 | 7.74 nM | CNS(=O)(=O)c1cccc(OC[C@@H](O)CN[C@H]2COC3(CCN(S(=O)(=O)c4cnc5[nH]c(C)c(Cl)c5c4)CC3)C2)c1 [Compound 517, 3-((S)-3-((R)-8-(3-chloro-2-methyl-1H-pyrrolo[2,3-b]pyridin-5-ylsulfonyl)-1-oxa-8-azaspiro[4.5]decan-3-ylamino)-2-hydroxypropoxy)-N-methylbenzenesulfonamide]
18 | 20.4 nM | CNS(=O)(=O)c1cccc(OC[C@@H](O)CNC2COC3(CCN(S(=O)(=O)c4ccc(-c5ccccn5)cc4)CC3)C2)c1 (stereo partly drawn) [Compound 402, 3-((2S)-2-hydroxy-3-(8-(4-(pyridin-2-yl)phenylsulfonyl)-1-oxa-8-azaspiro[4.5]decan-3-ylamino)propoxy)-N-methylbenzenesulfonamide]
19 | 44.2 nM | CNS(=O)(=O)c1cccc(OC[C@@H](O)CN[C@H]2COC3(CCN(S(=O)(=O)c4cnc5c(c4)N(C)CC4(CC4)O5)CC3)C2)c1 [Compound 474, 3-((S)-2-hydroxy-3-((R)-8-(1′-methyl-1′,2′-dihydrospiro[cyclopropane-1,3′-pyrido[2,3-b][1,4]oxazine]-7′-ylsulfonyl)-1-oxa-8-azaspiro[4.5]decan-3-ylamino)propoxy)-N-methylbenzenesulfonamide]
20 | 788 nM | CNS(=O)(=O)c1cccc(OC[C@@H](O)CN[C@H]2COC3(CCN(c4ncc(C(=O)OC)cn4)CC3)C2)c1 [Compound 581, methyl 2-((R)-3-((S)-2-hydroxy-3-(3-(N-methylsulfamoyl)phenoxy)propylamino)-1-oxa-8-azaspiro[4.5]decan-8-yl)pyrimidine-5-carboxylate]
21 | 12.6 nM | CCN1CCOc2ncc(S(=O)(=O)N3CCC4(CC3)CC(NC[C@H](O)COc3cccc(S(=O)(=O)NC)c3)CO4)cc21 (stereo partly drawn) [Compound 423, 3-((2S)-3-(8-(1-ethyl-2,3-dihydro-1H-pyrido[2,3-b][1,4]oxazin-7-ylsulfonyl)-1-oxa-8-azaspiro[4.5]decan-3-ylamino)-2-hydroxypropoxy)-N-methylbenzenesulfonamide]
22 | 27.3 nM | CNS(=O)(=O)c1cccc(OC[C@@H](O)CNC2COC3(CCN(S(=O)(=O)c4ccc5c(c4)N(C(C)C)CCO5)CC3)C2)c1 (stereo partly drawn) [Compound 334, 3-((2S)-2-hydroxy-3-(8-(4-isopropyl-3,4-dihydro-2H-benzo[b][1,4]oxazin-6-ylsulfonyl)-1-oxa-8-azaspiro[4.5]decan-3-ylamino)propoxy)-N-methylbenzenesulfonamide]
23 | 67.9 nM | CNS(=O)(=O)c1cccc(OC[C@@H](O)CNC2COC3(CCN(S(=O)(=O)c4ccc5c(c4)N(CC(C)C)CCO5)CC3)C2)c1 (stereo partly drawn) [Compound 349, 3-((2S)-2-hydroxy-3-(8-(4-isobutyl-3,4-dihydro-2H-benzo[b][1,4]oxazin-6-ylsulfonyl)-1-oxa-8-azaspiro[4.5]decan-3-ylamino)propoxy)-N-methylbenzenesulfonamide]
24 | 18.9 nM | CNS(=O)(=O)c1cccc(OC[C@@H](O)CNC2COC3(CCN(S(=O)(=O)c4cc(-c5ccc(CN)cc5)ccc4Cl)CC3)C2)c1 (stereo partly drawn) [Compound 377, 3-((2S)-3-(8-(4′-(aminomethyl)-4-chlorobiphenyl-3-ylsulfonyl)-1-oxa-8-azaspiro[4.5]decan-3-ylamino)-2-hydroxypropoxy)-N-methylbenzenesulfonamide]
25 | 172 nM | C[C@H](CO)NS(=O)(=O)c1cccc(OC[C@@H](O)CN[C@H]2COC3(CCN(S(=O)(=O)c4cnc5c(c4)N(C)CCO5)CC3)C2)c1 [Compound 418, 3-((S)-2-hydroxy-3-((R)-8-(1-methyl-2,3-dihydro-1H-pyrido[2,3-b][1,4]oxazin-7-ylsulfonyl)-1-oxa-8-azaspiro[4.5]decan-3-ylamino)propoxy)-N—((R)-1-hydroxypropan-2-yl)benzenesulfonamide]

— US11987588B2, “Modulators of the beta-3 adrenergic receptor useful for the treatment or prevention of heart failure and disorders related thereto” (Arena Pharmaceuticals, Inc., priority 2017, dated 2024)
